In brackets after ≈: the same amount, converted by molar mass. Activity calls are given as the source filed them. No cut-off for these calls is given here.
How the values were obtained:
Staphylococcus aureus = assay: Antibacterial activity against methicillin-resistant Staphylococcus aureus clinical isolate CAN-ICU 61589 assessed as inhibition of visible growth incubated for 18 hrs by CLSI protocol based microbroth dilution method; format: functional
Enterobacter cloacae = assay: Antibacterial activity against Enterobacter cloacae 117029 assessed as inhibition of visible growth incubated for 18 hrs by CLSI protocol based microbroth dilution method; format: functional
Pseudomonas aeruginosa [1] = assay: Antibacterial activity against Pseudomonas aeruginosa ATCC 27853 assessed as inhibition of visible growth incubated for 18 hrs by CLSI protocol based microbroth dilution method; format: functional
[2] = tested on: Stenotrophomonas maltophilia; assay: Antibacterial activity against Stenotrophomonas maltophilia clinical isolate CAN-ICU 62584 assessed as inhibition of visible growth incubated for 18 hrs by CLSI protocol based microbroth dilution method; format: functional
Acinetobacter baumannii [3] = assay: Antibacterial activity against Acinetobacter baumannii clinical isolate CAN-ICU 63169 assessed as inhibition of visible growth incubated for 18 hrs by CLSI protocol based microbroth dilution method; format: functional
Klebsiella pneumoniae [4] = assay: Antibacterial activity against Klebsiella pneumoniae 116381 assessed as inhibition of visible growth incubated for 18 hrs by CLSI protocol based microbroth dilution method; format: functional
Pseudomonas aeruginosa [5] = assay: Potentiation of moxifloxacin-induced antibacterial activity against wild type Pseudomonas aeruginosa PAO1 assessed as moxifloxacin MIC measured after 18 hrs by CLSI protocol based microbroth dilution method (reference value: 1 ug/ml); format: functional
Pseudomonas aeruginosa [6] = assay: Synergistic antibacterial activity against wild type Pseudomonas aeruginosa PAO1 assessed as fractional inhibitory concentration index in presence of ciprofloxacin by Checkerboard assay; format: functional
Pseudomonas aeruginosa [7] = assay: Synergistic antibacterial activity against wild type Pseudomonas aeruginosa PAO1 assessed as fractional inhibitory concentration index in presence of levofloxacin by Checkerboard assay; format: functional
Pseudomonas aeruginosa [8] = assay: Potentiation of ciprofloxacin-induced antibacterial activity against wild type Pseudomonas aeruginosa PAO1 assessed as fold reduction in ciprofloxacin MIC measured after 18 hrs by CLSI protocol based microbroth dilution method relative to ciprofloxacin MIC; format: functional
Pseudomonas aeruginosa [9] = assay: Potentiation of levofloxacin-induced antibacterial activity against wild type Pseudomonas aeruginosa PAO1 assessed as […] measured after 18 hrs by CLSI protocol based microbroth dilution method relative to levofloxacin MIC; format: functional
Pseudomonas aeruginosa [10] = assay: Potentiation of moxifloxacin-induced antibacterial activity against wild type Pseudomonas aeruginosa PAO1 assessed as […] measured after 18 hrs by CLSI protocol based microbroth dilution method relative to moxifloxacin MIC; format: functional
Pseudomonas aeruginosa [11] = assay: Additive antibacterial activity against MexAB-OprM, MexCD-OprJ, MexEF-OprN, MexJK and MexXY efflux pumps deficient Pseudomonas aeruginosa PAO750 in presence of levofloxacin by Checkerboard assay; format: functional, organism-based
Pseudomonas aeruginosa [12] = assay: Additive antibacterial activity against MexAB-OprM, MexCD-OprJ, MexEF-OprN, MexJK and MexXY efflux pumps deficient Pseudomonas aeruginosa PAO750 in presence of moxifloxacin by Checkerboard assay; format: functional, organism-based
Pseudomonas aeruginosa [13] = assay: Synergistic antibacterial activity against wild type Pseudomonas aeruginosa PAO1 in presence of ciprofloxacin by Checkerboard assay; format: functional, organism-based
Pseudomonas aeruginosa [14] = assay: Synergistic antibacterial activity against wild type Pseudomonas aeruginosa PAO1 in presence of levofloxacin by Checkerboard assay; format: functional, organism-based
Pseudomonas aeruginosa [15] = assay: Synergistic antibacterial activity against wild type Pseudomonas aeruginosa PAO1 in presence of moxifloxacin by Checkerboard assay; format: functional, organism-based
Pseudomonas aeruginosa [16] = assay: Synergistic antibacterial activity against multidrug resistant Pseudomonas aeruginosa PA259 in presence of ciprofloxacin by Checkerboard assay; format: functional, organism-based
Pseudomonas aeruginosa [17] = assay: Synergistic antibacterial activity against multidrug resistant Pseudomonas aeruginosa PA259 in presence of levofloxacin by Checkerboard assay; format: functional, organism-based
Pseudomonas aeruginosa [18] = assay: Synergistic antibacterial activity against multidrug resistant Pseudomonas aeruginosa PA259 in presence of moxifloxacin by Checkerboard assay; format: functional, organism-based
Pseudomonas aeruginosa [19] = assay: Synergistic antibacterial activity against multidrug resistant Pseudomonas aeruginosa PA260 in presence of ciprofloxacin by Checkerboard assay; format: functional, organism-based
Pseudomonas aeruginosa [20] = assay: Synergistic antibacterial activity against multidrug resistant Pseudomonas aeruginosa PA260 in presence of moxifloxacin by Checkerboard assay; format: functional, organism-based
Pseudomonas aeruginosa [21] = assay: Synergistic antibacterial activity against multidrug resistant Pseudomonas aeruginosa PA262 in presence of levofloxacin by Checkerboard assay; format: functional, organism-based
Pseudomonas aeruginosa [22] = assay: Synergistic antibacterial activity against multidrug resistant Pseudomonas aeruginosa PA262 in presence of moxifloxacin by Checkerboard assay; format: functional, organism-based
Pseudomonas aeruginosa [23] = assay: Synergistic antibacterial activity against multidrug resistant Pseudomonas aeruginosa PA264 in presence of levofloxacin by Checkerboard assay; format: functional, organism-based
Pseudomonas aeruginosa [24] = assay: Synergistic antibacterial activity against multidrug resistant Pseudomonas aeruginosa PA100036 in presence of ciprofloxacin by Checkerboard assay; format: functional, organism-based
Pseudomonas aeruginosa [25] = assay: Synergistic antibacterial activity against multidrug resistant Pseudomonas aeruginosa PA100036 in presence of levofloxacin by Checkerboard assay; format: functional, organism-based
Pseudomonas aeruginosa [26] = assay: Synergistic antibacterial activity against multidrug resistant Pseudomonas aeruginosa PA100036 in presence of moxifloxacin by Checkerboard assay; format: functional, organism-based
Escherichia coli [27] = assay: Additive antibacterial activity against Escherichia coli 94474 in presence of ciprofloxacin by Checkerboard assay; format: functional, organism-based
Escherichia coli [28] = assay: Synergistic antibacterial activity against Escherichia coli 107115 in presence of levofloxacin by Checkerboard assay; format: functional, organism-based
Escherichia coli [29] = assay: Synergistic antibacterial activity against Escherichia coli ATCC 25922 in presence of moxifloxacin by Checkerboard assay; format: functional, organism-based
Escherichia coli [30] = assay: Synergistic antibacterial activity against Escherichia coli 107115 in presence of moxifloxacin by Checkerboard assay; format: functional, organism-based
Escherichia coli [31] = assay: Synergistic antibacterial activity against Escherichia coli 94393 in presence of moxifloxacin by Checkerboard assay; format: functional, organism-based
Klebsiella pneumoniae [32] = assay: Synergistic antibacterial activity against Klebsiella pneumoniae 116381 in presence of ciprofloxacin by Checkerboard assay; format: functional, organism-based
Klebsiella pneumoniae [33] = assay: Synergistic antibacterial activity against Klebsiella pneumoniae 116381 in presence of levofloxacin by Checkerboard assay; format: functional, organism-based
Acinetobacter baumannii [34] = assay: Synergistic antibacterial activity against Acinetobacter baumannii ATCC 17978 in presence of ciprofloxacin by Checkerboard assay; format: functional, organism-based
Acinetobacter baumannii [35] = assay: Synergistic antibacterial activity against multidrug resistant Acinetobacter baumannii AB027 assessed as fractional inhibitory concentration index in presence of ciprofloxacin by Checkerboard assay; format: functional
Acinetobacter baumannii [36] = assay: Synergistic antibacterial activity against multidrug resistant Acinetobacter baumannii AB027 assessed as fractional inhibitory concentration index in presence of moxifloxacin by Checkerboard assay; format: functional
Pseudomonas aeruginosa [37] = assay: Potentiation of chloramphenicol-induced antibacterial activity against wild type Pseudomonas aeruginosa PAO1 measured after 18 hrs by CLSI protocol based microbroth dilution method; format: functional, organism-based
Pseudomonas aeruginosa [38] = assay: Potentiation of clindamycin-induced antibacterial activity against wild type Pseudomonas aeruginosa PAO1 measured after 18 hrs by CLSI protocol based microbroth dilution method; format: functional, organism-based
Pseudomonas aeruginosa [39] = assay: Potentiation of trimethoprim-induced antibacterial activity against wild type Pseudomonas aeruginosa PAO1 measured after 18 hrs by CLSI protocol based microbroth dilution method; format: functional, organism-based
Pseudomonas aeruginosa [40] = assay: Potentiation of fosfomycin-induced antibacterial activity against wild type Pseudomonas aeruginosa PAO1 measured after 18 hrs by CLSI protocol based microbroth dilution method; format: functional, organism-based
Pseudomonas aeruginosa [41] = assay: Potentiation of aztreonam-induced antibacterial activity against wild type Pseudomonas aeruginosa PAO1 measured after 18 hrs by CLSI protocol based microbroth dilution method; format: functional, organism-based

Which MIC (Staphylococcus aureus) does the source give for `C[C@H]1COc2c(N3CCN(C)CC3)c(F)cc3c(=O)c(C(=O)NCCCCCCCCCCCC(=O)N[C@@H](CCN)C(=O)N[C@@H](CCN)C(N)=O)cn1c23` here?
The MIC was 128 µg/mL (≈ 169 µM).

And the MIC (Enterobacter cloacae)?
Its MIC is 128 µg/mL (≈ 169 µM).

And the MIC (Pseudomonas aeruginosa [1])?
Its MIC is over 128 µg/mL.

And the MIC [2]?
Its MIC is over 128 µg/mL.

What about the MIC (Acinetobacter baumannii [3]) of the same compound?
The MIC was over 128 µg/mL.

What about the MIC (Klebsiella pneumoniae [4]) of the same compound?
Its MIC is over 128 µg/mL.

And the MIC (Pseudomonas aeruginosa [5])?
The MIC was 0.25 µg/mL.

And the “fractional inhibitory concentration index (FICI)” value (Pseudomonas aeruginosa [6])?
Its value is 0.313.

What about the “fractional inhibitory concentration index (FICI)” value (Pseudomonas aeruginosa [7]) of the same compound?
Its value is 0.5.

And the Ratio (Pseudomonas aeruginosa [8])?
Its Ratio is 4.

And the Ratio (Pseudomonas aeruginosa [9])?
Its Ratio is 4.

What about the Ratio (Pseudomonas aeruginosa [10]) of the same compound?
Its Ratio is 4.

What about the Activity (Pseudomonas aeruginosa [11]) of the same compound?
Its Activity is “Active”.

And the Activity (Pseudomonas aeruginosa [12])?
The Activity was “Active”.

What about the Activity (Pseudomonas aeruginosa [13]) of the same compound?
Its Activity is “Active”.

What about the Activity (Pseudomonas aeruginosa [14]) of the same compound?
Its Activity is “Active”.

What about the Activity (Pseudomonas aeruginosa [15]) of the same compound?
Its Activity is “Active”.

And the Activity (Pseudomonas aeruginosa [16])?
The Activity was “Active”.

What about the Activity (Pseudomonas aeruginosa [17]) of the same compound?
Its Activity is “Active”.

What about the Activity (Pseudomonas aeruginosa [18]) of the same compound?
Its Activity is “Active”.

What about the Activity (Pseudomonas aeruginosa [19]) of the same compound?
The Activity was “Active”.

What about the Activity (Pseudomonas aeruginosa [20]) of the same compound?
Its Activity is “Active”.

What about the Activity (Pseudomonas aeruginosa [21]) of the same compound?
The Activity was “Active”.

What about the Activity (Pseudomonas aeruginosa [22]) of the same compound?
Its Activity is “Active”.

And the Activity (Pseudomonas aeruginosa [23])?
The Activity was “Active”.

What about the Activity (Pseudomonas aeruginosa [24]) of the same compound?
The Activity was “Active”.

What about the Activity (Pseudomonas aeruginosa [25]) of the same compound?
Its Activity is “Active”.

What about the Activity (Pseudomonas aeruginosa [26]) of the same compound?
The Activity was “Active”.

And the Activity (Escherichia coli [27])?
The Activity was “Active”.

What about the Activity (Escherichia coli [28]) of the same compound?
Its Activity is “Active”.

And the Activity (Escherichia coli [29])?
Its Activity is “Active”.

And the Activity (Escherichia coli [30])?
The Activity was “Active”.

What about the Activity (Escherichia coli [31]) of the same compound?
Its Activity is “Active”.

And the Activity (Klebsiella pneumoniae [32])?
Its Activity is “Active”.

And the Activity (Klebsiella pneumoniae [33])?
The Activity was “Active”.

What about the Activity (Acinetobacter baumannii [34]) of the same compound?
Its Activity is “inactive”.

And the “fractional inhibitory concentration index (FICI)” value (Acinetobacter baumannii [35])?
Its value is 0.37.

And the “fractional inhibitory concentration index (FICI)” value (Acinetobacter baumannii [36])?
Its value is 0.37.

What about the Activity (Pseudomonas aeruginosa [37]) of the same compound?
The Activity was “Active”.

What about the Activity (Pseudomonas aeruginosa [38]) of the same compound?
Its Activity is “Active”.

And the Activity (Pseudomonas aeruginosa [39])?
The Activity was “Active”.

And the Activity (Pseudomonas aeruginosa [40])?
Its Activity is “Active”.

What about the Activity (Pseudomonas aeruginosa [41]) of the same compound?
The Activity was “inactive”.
